Results taken from patent publication US20030170299A1, “Therapeutic methods for acute myeloid leukemia” (priority 2002, published 2003).
Like-named read-outs stand apart in the source and are kept apart here.

How the values were obtained:
[1] = tested on: FR-β; settings: cited from earlier work
[2] = tested on: KG-1 cells; assay: Cellular uptake of calcein liposomes by flow cytometry, KG-1; type: cell-based, human; settings: 6S-5MeTHF at 10 μM
Experimental: Folate-coated liposomes with the composition DSPC/Chol/folate-PEG-DSPE (60:40:0.1, m/m) and entrapping calcein, a membrane impermeable fluorescent dye, (f-L-calcein) were prepared, using a modification of the procedure described above. Non-targeted calcein-containing liposomes (L-calcein), with essentially the same composition, minus folate-PEG-DSPE, were used as a control. FR (+) cell lines, human KG-1, CHO-FR-β, and murine L1210JF, and the FR (−) cell lines KG-1a, CHO-K1 and L1210 were used. FR-β expression on the cells was determined by flow cytometry using a receptor-specific antibody. For liposome binding studies, the cells were treated in triplicate with f-L-calcein (folate-conjugated liposomes containing calcein) or free L-calcein at 20 μM in media. The cells were then washed 3× with cold PBS and examined by […] (FIG. 3).
Data on cellular uptake of calcein-containing liposomes in the FR (+) KG-1, L1210JF and CHO-FR-β cells, and FR (−) KG-1a, L1210 and CHO-K1 controls are summarized in Table 2 below.
In order to examine the potential effect of physiological folate on FR-mediated drug delivery in FR-β (+) cells, f-L-calcein uptake was measured in KG-1 cells in the presence of 0-10 μM 6S-5-methyltetrahydrofolate (6S-5MeTHF) using the same flow cytometry method as described above.

[3] = tested on: KG-1 ascites tumor
Experimental: Effect of f-L-DOX treatment on the survival of SCID mice carrying KG-1 ascites tumor. SCID mice inoculated intraperitoneally with KG-1 cells that were treated with saline, free DOX, L-DOX or f-L-DOX, with or without co-injection of ATRA. Animal survival was recorded starting from the day of tumor cell inoculation.
The therapeutic efficacy of f-L-DOX in a human leukemia murine ascites xenograft model was further tested. Female CB.17 SCID (scid/scid, 18-22 g) mice were inoculated intraperitoneally with human AML KG-1 cells, which express FR-β, to generate ascites tumors. KG-1 cells (1×10^6) grown in folate-deficient RPMI1640 media supplemented with 20% FBS were injected into the mice intraperitoneally on day 0. […] Peritoneal exudate cells were collected by peritoneal lavage with 5 mL Hanks' balanced salt solution (HBSS), pelleted and resuspended in RPMI1640 media. […] The tumor cells were inoculated into 8 groups of 8 mice. Four of the groups received daily intraperitoneal injections of 10 mg/kg of ATRA on days 1 through 5. The following formulations were administered as intraperitoneal injections on days 1, 5, and 9 (in 50 μL): 1) saline, 2) free DOX (3 mg/kg), 3) L-DOX (5 mg/kg), 4) f-L-DOX (5 mg/kg), 5) saline+ATRA, 6) free DOX+ATRA, 7) L-DOX+ATRA, and 8) f-L-DOX+ATRA. The body weight and survival of the animals were monitored daily during the course of the study.

[4] = tested on: FR-β expression
[5] = tested on: FR-β expression; assay: ATRA induction of FR-β in AML blasts from patient marrow (Western blot); type: cell-based, human; settings: myeloid leukemia cells from patient bone marrow, in vitro, ATRA 1 μmol/L
Experimental: FIG. 5. ATRA induction of FR-β in AML blasts from patient marrow. Cells (1×10^6) were cultured and treated with or without ATRA (1 μmol/L) for 6 hours (A and B), 24 hours (C), or 5 days (D). The samples were obtained from separate patients with FAB-M2 (A and C) or FAB-M4 (B and D) type AML. Cell lysates were then examined by Western blot and the use of rabbit anti-FR-β- and AP conjugated antibodies.
In one study, FR-β expression was elevated up to 20-fold by ATRA in KG-1 myeloid leukemia cells in a dose-dependent and reversible manner in the absence of terminal differentiation or cell growth inhibition (FIG. 4). The retinoid-induced increase in FR-β expression occurred in these cells without causing terminal differentiation or growth inhibition of the cells. In addition, ATRA increased FR-β expression in vitro in myeloid leukemia cells from patient bone marrow (FIG. 5). ATRA-induction of FR-β occurred even though primary AML blast cells (M2 and M4 type AMLs) are known to be refractory to ATRA differentiation therapy. […] In addition, FR-β inducers can modulate FR-β expression in AML cells refractory to retinoid differentiation therapy.

[6] = tested on: acute promyelocytic leukemia (PML); settings: PML patients; cited from earlier work
[7] = tested on: KG-1a cells; assay: MTT cytotoxicity, KG-1a; type: cell-based, human
Experimental: (§1) FR-targeted liposomal doxorubicin (f-L-DOX) was evaluated for in vitro cytotoxicity in both FR (+) and FR (−) leukemia cells using a standard cell survival assay (MTT assay). FR-targeted liposomal-doxorubicin (f-L-DOX) was prepared as described above. F-L-DOX in vitro cytotoxicity was evaluated in two FR (+) cell lines [KG-1, an FR-β (+) human AML cell line, and L1210JF, an FR (+) subline of L1210 murine acute lymphocytic leukemia cell line] and two FR (−) cell lines [KG-1a, an FR-β (−) subline of KG-1, and FR (−) L1210 cells] using the survival assay. The cells were treated in quadruplicate with serial dilutions of f-L-DOX, non-targeted control L-DOX, or free DOX. Cell viability was determined and IC50 values were calculated. For KG-1 and KG-1a cells, the MTT assay was repeated with cells cultured in media containing 1 μM ATRA for 5-days.

[8] = tested on: L1210JF cells; assay: MTT cytotoxicity, L1210JF; type: cell-based, murine; settings: no ATRA
Experimental: as §1

[9] = tested on: L1210 cells; assay: MTT cytotoxicity, L1210; type: cell-based, murine
Experimental: as §1

[10] = tested on: KG-1 cells; assay: MTT cytotoxicity, KG-1; type: cell-based, human
Experimental: as §1

[11] = tested on: L1210JF ascites tumor; assay: Survival of DBA/2 mice carrying L1210JF ascites tumor; type: in vivo, DBA/2J mice; settings: i.p. on days 1, 5, 9; free DOX 3 mg/kg, L-DOX and f-L-DOX 5 mg/kg DOX
Experimental: The antileukemic therapeutic efficacy of f-L-DOX was evaluated in two FR (+) murine leukemia ascites tumor models. The first model consisted of DBA/2J mice with ascites tumors derived from intraperitoneally engrafted FR (+) murine lymphocytic leukemia L1210JF cells. Male mice (18-22 g, from Charles River, Wilmington, Mass.) were placed on a folate-deficient diet (AIN-93G from Dyets, Inc., PA) and for at least one week prior to leukemia cell inoculation. The mice, in groups of 8 animals, were injected intraperitoneally with 1×10^6 L1210JF cells on day 0. The animals then received three intraperitoneal injections (in 50 μL) of various drug formulations on days 1, 5, and 9. […] In the saline-treated group, no visible ascitic fluid began to develop until after one week.

[12] = tested on: CMLs; settings: in vivo; cited from earlier work
[13] = tested on: FR-β (+) AML cells; assay: [3H] folic acid binding to FR-β (+) AML cells; set-up: species or system human

CN1c2c(nc(N)[nH]c2=O)NC[C@@H]1CNc1ccc(C(=O)N[C@@H](CCC(=O)O)C(=O)O)cc1 [6S-5MeTHF, 6S-5-methyltetrahydrofolate]
affinity of FR-β lower than for folic acid [1]: ~35 ×
inhibition of f-L-calcein uptake [2]: did not significantly inhibit

CC1=C(/C=C/C(C)=C/C=C/C(C)=C/C(=O)O)C(C)(C)CCC1 [ATRA, all-trans retinoic acid]
survival ([3]; ATRA treatment in the absence of f-L-DOX or L-DOX): did not enhance survival
FR-β expression ([4]; KG-1 cells, flow cytometry, 5-day exposure to ATRA (1 μM)): significant increase
FR-β expression elevated ([4]; KG-1 myeloid leukemia cells, dose-dependent, reversible): up to 20 fold
FR-β expression [5]: increased
Complete remission [6]: 72-95%

COc1cccc2c1C(=O)c1c(O)c3c(c(O)c1C2=O)C[C@@](O)(C(=O)CO)C[C@@H]3O[C@H]1C[C@H](N)[C@H](O)[C@H](C)O1 [Free DOX, doxorubicin]
IC50 ([7]; FR (−), no ATRA, folate-free media): 610 nM
IC50 ([7]; FR (−), pre-exposure to ATRA, folate-free media): 590 nM
IC50 ([7]; no ATRA, media containing 1 mM folic acid): 630 nM
IC50 ([7]; pre-exposure to ATRA, media containing 1 mM folic acid): 620 nM
dose-limiting toxicity ([3]; mice, results not shown): > 3 mg/kg
IC50 ([8]; FR-α (+), folate-free media): 860 nM
IC50 ([8]; media containing 1 mM folic acid): 870 nM
IC50 ([9]; L1210, FR (−), no ATRA, folate-free media): 910 nM
IC50 ([9]; L1210, no ATRA, media containing 1 mM folic acid): 930 nM
IC50 ([10]; KG-1, FR-β (+), no ATRA, folate-free media): 650 nM
IC50 ([10]; KG-1, FR-β (+), pre-exposure to ATRA, folate-free media): 630 nM
IC50 ([10]; KG-1, no ATRA, media containing 1 mM folic acid): 670 nM
IC50 ([10]; KG-1, pre-exposure to ATRA, media containing 1 mM folic acid): 680 nM
median survival time [11]: 28.5 days

CS(=O)(=O)O.Cc1ccc(NC(=O)c2ccc(CN3CCN(C)CC3)cc2)cc1Nc1nccc(-c2cccnc2)n1 [Gleevec™]
effective against CMLs [12]: 90%

Nc1nc2ncc(CNc3ccc(C(=O)N[C@@H](CCC(=O)O)C(=O)O)cc3)nc2c(=O)[nH]1 [folic acid]
[3H] folic acid bound [13]: 0.72±0.13 pmoles per 10^6 cells
